Columns and labels:
C. albicans biofilms = test: in vitro biofilm disruption assay, fungal; type: cell-based, Candida albicans; conditions: 1% amino acid, p<0.001
Procedure: Two types of biofilm assays were performed: a sustained inhibition assay and a disruption assay.
(§1) For fungal biofilm assays, all solutions were prepared in RPMI 1640 medium. All bacterial biofilm solutions were prepared in Tryptic Soy Broth (TSB), supplemented with 1% glucose (henceforth referred to as TSB-G). All subsequent procedures were performed in a manner that maintained sterility. A solution of each amino acid to be tested was prepared in weight to volume concentrations ranging from 0.1-5.0%. Amino acids were also tested in combinations. Compound solutions were homogenized with gentle agitation in the dark (4° C., 24 hours) before use.
Fungal strains were streaked on Yeast Peptone Dextrose (YPD) agar plates and incubated at 30° C. for 48 hours. A single colony from each strain to be tested was inoculated into YPD broth and grown for 12 hours, at 30° C., shaking at 225 rpm. For the fungal biofilm inhibition assay, 1 μl of saturated overnight cell culture was added to either 80 μL of RPMI-1640 or RPMI-1640 supplemented with the amino acid compound solution to be tested, in a 384-well plate. […] Media was carefully aspirated and the biofilm was measured by optical density at 600 nm. Twelve replicates were performed for each tested condition and the reported values are normalized to the control (RPMI-1640 media only). For the fungal biofilm disruption assays, 80 μL of RPMI-1640 was added to the plate, along with 1 μL of overnight cell culture. […] Loosely bound cells were washed once with PBS and 80 μL of RPMI-1640 was added to the plate. […] Media was carefully aspirated from the mature biofilm and 80 μL of RPMI-1640, or RPMI-1640 supplemented with the amino acid compound solution to be tested, was gently added to the plate. […] Media was carefully aspirated and the biofilm was measured by optical density at 600 nm. Twelve replicates were performed for each tested condition and the reported values are normalized to the control (RPMI-1640 media only).
The cells were allowed to adhere to the plate for 90 minutes at 37° C. with shaking (350 rpm). […] The plate was further incubated for 24 hours at 37° C. with shaking (350 rpm). […] The plate was further incubated for 24 hours at 37° C. with shaking (350 rpm). Media was carefully aspirated and the biofilm was measured by optical density at 600 nm.

[1] = test system: S. aureus (MRSA) biofilms; test: in vitro biofilm disruption assay, bacterial; type: cell-based; conditions: Staphylococcus aureus, 24 h, disruption, S. aureus, 1% amino acid, p<0.001, read-out: Promote B Biofilm
Procedure: In vitro biofilm formation was tested using two assays, sustained inhibition and disruption. Both assays assess biofilm formed on polystyrene plates. The first, tests the effects of amino acid solution on a developing biofilm, while the latter tests the effects of the solution on a pre-formed mature biofilm, both compared to media without supplemented amino acids.
(§2) Other amino acids in the blood of animals could combat bacterial and fungal biofilm and therefore may be useful in treating these bacterial and fungal infections that would lie on the external surfaces of infected animals such as humans and could also be used to combat these pathogens on instruments and surfaces that need to be treated. Two types of biofilm assays were performed: a sustained inhibition assay and a disruption assay. The sustained inhibition assay assessed the compound's ability to prevent biofilm development throughout all stages of biofilm formation, while the disruption assay assessed the compound's ability to break up an existing mature biofilm.
as §1
(§3) Bacterial strains were streaked on Blood Agar plates (5% sheep blood in Tryptic Soy Agar) and incubated at 37° C. for 24 hours. A single colony from each strain to be tested was inoculated in a TSB broth and grown for 12 hours, at 37° C. shaking at 225 rpm. For the bacterial biofilm inhibition assays, 1 μL of saturated overnight cell culture was added to either 80 μL of TSB-G, or TSB-G supplemented with the amino acid compound solution to be tested, in a 384-well plate. The cells were allowed to adhere to the plate for 60 minutes at 37° C. without shaking. The media was carefully aspirated and 80 μL of TSB-G, or TSB-G supplemented with the amino acid compound solution was added to the plate. The plate was further incubated for 24 hours at 37° C. without shaking. Media was carefully aspirated and the biofilm was measured by optical density at 600 nm. Eight or twelve replicates were performed for each tested condition and the reported values are normalized to the control (TSB-G media only). For the bacterial biofilm disruption assays, 80 μL of TSB-G was added to the plate, along with 1 μL of overnight cell culture. The cells were allowed to adhere to the plate for 60 minutes at 37° C. with no shaking. The media was carefully aspirated and 80 μL of TSB-G was added to the plate. The plate was further incubated for 24 hours at 37° C. with no shaking. Media was carefully aspirated from the mature biofilm and 80 μL of TSB-G, or TSB-G supplemented with the amino acid to be tested, was gently added to the plate. The plate was further incubated for 24 hours at 37° C. without shaking. Media was aspirated and the biofilm was measured by optical density at 600 nm. Twelve replicates were performed for each tested condition and the reported values are normalized to the control (TSB-G media only).
For disruption assay, 80 μl of TSB-G was added to the plate, along with 1 μl of overnight cell culture. The cells were allowed to adhere to the plate for 60 minutes at 37° C. with no shaking. The media was carefully aspirated and 80 μl of TSB-G was added to the plate. The plate was further incubated for 24 hours at 37° C. with no shaking. Media was carefully aspirated from the mature biofilm and 80 μl of TSB-G, or TSB-G supplemented with the amino acid to be tested, was added drop wise to the plate. The plate was further incubated for 24 hours at 37° C. with no shaking. […]

[2] = test system: fungal biofilms (C. albicans); test: biofilm assays (sustained inhibition and/or disruption), fungal; type: cell-based, Candida albicans; conditions: administered individually; in at least one of the two biofilm assays
Procedure: Other amino acids in the blood of animals could combat bacterial and fungal biofilm and therefore may be useful in treating these bacterial and fungal infections that would lie on the external surfaces of infected animals such as humans and could also be used to combat these pathogens on instruments and surfaces that need to be treated. Two types of biofilm assays were performed: a sustained inhibition assay and a disruption assay. The sustained inhibition assay assessed the compound's ability to prevent biofilm development throughout all stages of biofilm formation, while the disruption assay assessed the compound's ability to break up an existing mature biofilm. For fungal biofilm assays, all solutions were prepared in RPMI 1640 medium. All bacterial biofilm solutions were prepared in Tryptic Soy Broth (TSB), supplemented with 1% glucose (henceforth referred to as TSB-G). All subsequent procedures were performed in a manner that maintained sterility. […] Amino acids were also tested in combinations. Compound solutions were homogenized with gentle agitation in the dark (4° C., 24 hours) before use. Fungal strains were streaked on Yeast Peptone Dextrose (YPD) agar plates and incubated at 30° C. for 48 hours. A single colony from each strain to be tested was inoculated into YPD broth and grown for 12 hours, at 30° C., shaking at 225 rpm. For the fungal biofilm inhibition assay, 1 μl of saturated overnight cell culture was added to either 80 μL of RPMI-1640 or RPMI-1640 supplemented with the amino acid compound solution to be tested, in a 384-well plate. The cells were allowed to adhere to the plate for 90 minutes at 37° C. shaking at 350 rpm. Loosely bound cells were washed once with phosphate buffered saline (PBS) and 80 μl of RPMI-1640, or RPMI-1640 supplemented with the amino acid compound solution was added to the plate. The plate was further incubated for 24 hours at 37° C. shaking at 350 rpm. Media was carefully aspirated and the biofilm was measured by optical density at 600 nm. Twelve replicates were performed for each tested condition and the reported values are normalized to the control (RPMI-1640 media only). For the fungal biofilm disruption assays, 80 μL of RPMI-1640 was added to the plate, along with 1 μL of overnight cell culture. The cells were allowed to adhere to the plate for 90 minutes at 37° C. shaking at 350 rpm. Loosely bound cells were washed once with PBS and 80 μL of RPMI-1640 was added to the plate. The plate was further incubated for 24 hours at 37° C. shaking at 350 rpm. Media was carefully aspirated from the mature biofilm and 80 μL of RPMI-1640, or RPMI-1640 supplemented with the amino acid compound solution to be tested, was gently added to the plate. The plate was further incubated for 24 hours at 37° C. shaking at 350 rpm. Media was carefully aspirated and the biofilm was measured by optical density at 600 nm. Twelve replicates were performed for each tested condition and the reported values are normalized to the control (RPMI-1640 media only).

[3] = test system: bacterial biofilms (MRSA); test: biofilm assays (sustained inhibition and/or disruption), bacterial; type: cell-based, Staphylococcus aureus; conditions: in at least one of the two biofilm assays
Procedure: as §2, §1, §3

O=C(O)[C@@H]1CCCN1 [Proline, L-proline]
Reduce F Biofilm (C. albicans biofilms): ● (a single dot [i.e. ●] signifies minor effect (from about 10 to about 30% change)) | activation at 1 % [1]: 10 to 30% | anti-biofilm properties against fungal biofilms [2]: reduction by less than two-fold | effect on bacterial biofilm growth [3]: support (improve) bacterial biofilm growth
